One test deals with T1, NaV1.5 (Homo sapiens, UniProt Q14524).
T1 construct: expression vector containing the full-length cDNA coding for the desired human sodium channel α-subunit; expressed in transfected cells; host or cells: HEK-293
In words: Patch voltage clamp electrophysiology assay (EP), NaV1.5 in HEK-293 cells. The class given is cell-based. To be noted: HEK-293, β1 coexpressed, held at -60 mV (inactivated state). In a few lines: (§1)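 Whole-cell patch clamp at ambient temperature on HEK-293 cells stably expressing human NaV1.5 or NaV1.7 with β1 subunit; CsF internal pH 7.2, NaCl external pH 7.4. Held at −60 mV (full inactivation), 20 ms step to −150 mV, then test pulse; percent current decrease after compound wash-on taken as block.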

In another test the target is T2, NaV1.7 (Homo sapiens, UniProt Q15858).
T2 construct: expression vector containing the full-length cDNA coding for the desired human sodium channel α-subunit; expressed in transfected cells; host or cells: HEK-293
T2 sequence (Q15858 1-1977 isoform Q15858-3): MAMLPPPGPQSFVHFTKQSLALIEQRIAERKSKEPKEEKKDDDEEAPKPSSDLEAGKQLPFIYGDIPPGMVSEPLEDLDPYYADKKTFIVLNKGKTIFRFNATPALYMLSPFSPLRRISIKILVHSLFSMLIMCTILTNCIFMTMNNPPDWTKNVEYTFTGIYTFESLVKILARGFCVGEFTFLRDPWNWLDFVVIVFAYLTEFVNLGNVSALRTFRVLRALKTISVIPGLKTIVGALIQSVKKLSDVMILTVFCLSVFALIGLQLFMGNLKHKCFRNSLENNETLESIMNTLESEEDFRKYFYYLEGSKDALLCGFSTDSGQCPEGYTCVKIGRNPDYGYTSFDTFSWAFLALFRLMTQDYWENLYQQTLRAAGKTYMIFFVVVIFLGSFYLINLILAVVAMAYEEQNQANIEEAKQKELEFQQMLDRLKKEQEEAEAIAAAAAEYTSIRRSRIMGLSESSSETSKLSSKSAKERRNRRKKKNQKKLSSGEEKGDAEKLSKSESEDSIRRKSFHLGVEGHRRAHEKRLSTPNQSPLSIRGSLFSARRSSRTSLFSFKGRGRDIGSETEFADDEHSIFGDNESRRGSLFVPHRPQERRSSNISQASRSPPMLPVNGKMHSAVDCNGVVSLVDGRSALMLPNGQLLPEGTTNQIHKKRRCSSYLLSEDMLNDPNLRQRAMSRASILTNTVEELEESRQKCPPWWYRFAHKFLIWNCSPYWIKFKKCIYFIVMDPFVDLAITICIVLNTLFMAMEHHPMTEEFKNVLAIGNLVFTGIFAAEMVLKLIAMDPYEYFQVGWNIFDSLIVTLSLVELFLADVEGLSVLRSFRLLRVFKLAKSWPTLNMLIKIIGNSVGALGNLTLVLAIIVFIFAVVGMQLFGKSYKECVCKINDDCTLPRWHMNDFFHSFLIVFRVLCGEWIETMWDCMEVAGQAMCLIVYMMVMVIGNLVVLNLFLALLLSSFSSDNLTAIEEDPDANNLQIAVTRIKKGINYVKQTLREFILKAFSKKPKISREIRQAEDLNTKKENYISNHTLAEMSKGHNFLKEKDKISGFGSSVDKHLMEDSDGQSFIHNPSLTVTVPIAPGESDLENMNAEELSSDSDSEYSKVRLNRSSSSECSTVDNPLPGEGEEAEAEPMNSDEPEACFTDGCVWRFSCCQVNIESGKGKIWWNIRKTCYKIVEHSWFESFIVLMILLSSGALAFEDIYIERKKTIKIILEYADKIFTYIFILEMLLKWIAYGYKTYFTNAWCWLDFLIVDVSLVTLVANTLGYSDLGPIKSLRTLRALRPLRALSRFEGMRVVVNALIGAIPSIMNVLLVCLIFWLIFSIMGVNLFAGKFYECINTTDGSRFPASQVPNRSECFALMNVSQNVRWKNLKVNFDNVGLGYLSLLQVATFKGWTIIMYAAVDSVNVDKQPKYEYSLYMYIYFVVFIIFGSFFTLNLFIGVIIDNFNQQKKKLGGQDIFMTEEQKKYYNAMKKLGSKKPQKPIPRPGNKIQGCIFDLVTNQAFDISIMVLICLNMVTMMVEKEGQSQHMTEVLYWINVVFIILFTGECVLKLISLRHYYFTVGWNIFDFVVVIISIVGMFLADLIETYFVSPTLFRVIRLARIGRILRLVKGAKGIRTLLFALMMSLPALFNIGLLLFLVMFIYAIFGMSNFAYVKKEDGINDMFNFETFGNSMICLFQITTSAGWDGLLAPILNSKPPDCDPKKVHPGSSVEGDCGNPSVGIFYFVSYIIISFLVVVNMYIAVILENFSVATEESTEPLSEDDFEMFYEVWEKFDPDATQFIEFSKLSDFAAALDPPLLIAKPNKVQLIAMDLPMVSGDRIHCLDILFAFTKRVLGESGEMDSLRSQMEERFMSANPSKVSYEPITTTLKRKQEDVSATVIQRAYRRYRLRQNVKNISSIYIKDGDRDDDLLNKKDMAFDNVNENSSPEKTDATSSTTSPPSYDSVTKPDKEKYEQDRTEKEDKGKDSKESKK
T2 sequence (Q07699 19-218 partner): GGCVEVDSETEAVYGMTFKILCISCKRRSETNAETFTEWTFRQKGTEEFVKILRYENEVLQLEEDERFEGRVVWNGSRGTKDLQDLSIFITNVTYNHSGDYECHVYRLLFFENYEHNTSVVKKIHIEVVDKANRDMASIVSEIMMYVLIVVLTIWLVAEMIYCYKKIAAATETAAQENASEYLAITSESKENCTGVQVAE
In words: Patch voltage clamp electrophysiology assay (EP), NaV1.7 in HEK-293 cells. The class given is cell-based. The note with it: HEK-293, β1 coexpressed, held at -60 mV (inactivated state). In a few lines:
as §1

A further test addresses T3, hNav1.7 (Homo sapiens, UniProt Q15858).
T3 construct: expressed in transfected cells
As to the kind of experiment: Tritiated sulfonamide competitive binding to membranes from cells expressing hNav1.7 and the β1 subunit (LBA). To be noted: competition with 100 pM [3H]compound, 18 h, room temperature; read-out: Nav1.7 (LBA). In a few lines:
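Membranes from cells co-expressing hNav1.7 and β1 incubated 18 h at room temperature with 100 pM tritiated sulfonamide and test compound in 100 mM NaCl/20 mM Tris pH 7.4. Non-specific binding defined by 1 μM unlabelled compound; filter-bound radioactivity counted, IC50 from 4-parameter logistic fit.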

Molecules are shown by their SMILES. Where a name gives a salt, the structure may show the parent alone.

T1 sequence (Q14524 whole entry): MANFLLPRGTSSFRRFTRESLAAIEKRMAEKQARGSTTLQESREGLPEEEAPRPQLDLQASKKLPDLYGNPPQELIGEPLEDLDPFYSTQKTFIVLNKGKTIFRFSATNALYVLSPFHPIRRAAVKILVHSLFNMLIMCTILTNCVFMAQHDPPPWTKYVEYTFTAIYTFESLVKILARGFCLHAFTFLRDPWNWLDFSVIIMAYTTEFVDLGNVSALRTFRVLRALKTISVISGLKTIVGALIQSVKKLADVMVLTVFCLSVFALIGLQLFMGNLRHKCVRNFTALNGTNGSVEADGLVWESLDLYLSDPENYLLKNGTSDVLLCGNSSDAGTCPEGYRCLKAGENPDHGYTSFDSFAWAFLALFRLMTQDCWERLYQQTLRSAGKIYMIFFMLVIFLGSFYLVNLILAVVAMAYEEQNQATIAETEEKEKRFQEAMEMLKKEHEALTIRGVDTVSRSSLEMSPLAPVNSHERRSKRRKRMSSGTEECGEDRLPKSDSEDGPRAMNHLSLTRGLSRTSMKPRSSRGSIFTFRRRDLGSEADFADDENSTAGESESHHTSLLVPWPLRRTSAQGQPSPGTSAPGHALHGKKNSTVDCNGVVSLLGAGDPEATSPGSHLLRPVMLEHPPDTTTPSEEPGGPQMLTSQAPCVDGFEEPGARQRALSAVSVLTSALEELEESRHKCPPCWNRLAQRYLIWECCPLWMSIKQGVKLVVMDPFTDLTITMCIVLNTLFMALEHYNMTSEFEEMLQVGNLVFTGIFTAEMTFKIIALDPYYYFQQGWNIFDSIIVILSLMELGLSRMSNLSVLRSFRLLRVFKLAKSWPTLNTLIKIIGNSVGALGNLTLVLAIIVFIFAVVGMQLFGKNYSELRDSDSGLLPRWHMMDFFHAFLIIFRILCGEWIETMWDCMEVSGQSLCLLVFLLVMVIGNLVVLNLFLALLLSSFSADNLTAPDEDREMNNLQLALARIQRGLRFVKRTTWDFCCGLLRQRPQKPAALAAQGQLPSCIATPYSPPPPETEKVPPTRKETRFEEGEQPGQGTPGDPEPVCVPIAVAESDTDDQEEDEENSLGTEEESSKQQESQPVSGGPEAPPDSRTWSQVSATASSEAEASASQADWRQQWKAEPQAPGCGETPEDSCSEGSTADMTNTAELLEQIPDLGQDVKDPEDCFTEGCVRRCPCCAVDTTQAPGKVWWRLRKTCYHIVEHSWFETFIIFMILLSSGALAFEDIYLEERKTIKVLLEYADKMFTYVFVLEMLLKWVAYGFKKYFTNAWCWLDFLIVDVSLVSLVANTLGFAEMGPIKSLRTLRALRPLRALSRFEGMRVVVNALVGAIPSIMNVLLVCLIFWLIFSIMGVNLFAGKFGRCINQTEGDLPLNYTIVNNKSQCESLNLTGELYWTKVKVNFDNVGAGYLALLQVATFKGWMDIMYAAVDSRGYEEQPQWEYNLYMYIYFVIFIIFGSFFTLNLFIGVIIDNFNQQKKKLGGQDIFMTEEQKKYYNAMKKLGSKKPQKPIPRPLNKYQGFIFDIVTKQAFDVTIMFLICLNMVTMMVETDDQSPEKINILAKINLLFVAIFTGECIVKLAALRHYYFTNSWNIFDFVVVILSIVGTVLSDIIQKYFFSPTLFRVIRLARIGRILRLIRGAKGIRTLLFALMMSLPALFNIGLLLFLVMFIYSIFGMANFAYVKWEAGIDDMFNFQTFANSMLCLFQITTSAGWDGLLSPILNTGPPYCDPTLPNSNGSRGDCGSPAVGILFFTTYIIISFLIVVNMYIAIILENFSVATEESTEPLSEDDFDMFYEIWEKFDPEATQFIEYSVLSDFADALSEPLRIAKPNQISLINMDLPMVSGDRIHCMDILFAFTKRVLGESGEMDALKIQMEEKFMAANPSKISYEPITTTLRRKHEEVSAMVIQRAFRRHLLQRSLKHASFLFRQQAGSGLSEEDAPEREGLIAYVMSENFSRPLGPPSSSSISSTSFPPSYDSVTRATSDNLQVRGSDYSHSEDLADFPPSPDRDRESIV
T3 sequence (Q15858 1-1977 isoform Q15858-3): as the sequence (Q15858 1-1977 isoform Q15858-3) above
T3 sequence (Q07699 19-218 partner): as the sequence (Q07699 19-218 partner) above

With `Cc1nn([C@@H]2CCN([C@@H](C)c3cc(Cl)cc(Cl)c3)C2)c2cc(F)c(C(=O)NS(=O)(=O)C3CC3)cc12` [Example 19, N-(cyclopropylsulfonyl)-1-((R)-1-((S)-1-(3,5-dichlorophenyl)ethyl)pyrrolidin-3-yl)-6-fluoro-3-methyl-1H-indazole-5-carboxamide, trifluoroacetic acid salt], the IC50 is 6.3 µM on NaV1.5, 41 nM at NaV1.7 and 12 nM on hNav1.7.

For the origin of these results see patent US10899732B2, “Substituted benzamides useful as sodium channel blockers” (GENENTECH, INC., priority 2015, dated 2021).
